Test results reported in the NIST ThermoML archive (doi:10.1021/acs.jced.8b00635).
Numbers after ± are expanded uncertainties.

Assay: activity coefficient (dimensionless); of the first substance listed, at infinite dilution; xn = mol fraction of the nth substance listed
Details: 101.33 kPa, Liquid, Chromatography, x1 = 0

| SMILES | activity coefficient (323.15 K) | activity coefficient (333.15 K) | activity coefficient (343.15 K) | activity coefficient (353.15 K) | activity coefficient (363.15 K) | activity coefficient (373.15 K) |
| --- | --- | --- | --- | --- | --- | --- |
| Cc1ccccc1 [toluene] + CCCCC(CC)CN(CC(CC)CCCC)C(=O)C(C)C | 5.11 ± 0.54 | 4.25 ± 0.45 | 3.25 ± 0.34 | 2.5 ± 0.26 | 1.88 ± 0.2 | 1.46 ± 0.15 |
| CCCCC [pentane] + CCCCC(CC)CN(CC(CC)CCCC)C(=O)C(C)C | 0.795 ± 0.082 | 0.676 ± 0.071 | 0.544 ± 0.059 | 0.457 ± 0.051 | 0.382 ± 0.045 | 0.324 ± 0.041 |
| ClC(Cl)Cl [trichloromethane] + CCCCC(CC)CN(CC(CC)CCCC)C(=O)C(C)C | 1.15 ± 0.12 | 0.966 ± 0.098 | 0.746 ± 0.077 | 0.586 ± 0.063 | 0.463 ± 0.052 | 0.372 ± 0.044 |
| ClCCl [dichloromethane] + CCCCC(CC)CN(CC(CC)CCCC)C(=O)C(C)C | 0.608 ± 0.065 | 0.506 ± 0.056 | 0.41 ± 0.048 | 0.339 ± 0.042 | 0.273 ± 0.037 | 0.225 ± 0.034 |
| C=CCCCC [hex-1-ene] + CCCCC(CC)CN(CC(CC)CCCC)C(=O)C(C)C | 1.77 ± 0.18 | 1.37 ± 0.14 | 1.17 ± 0.12 | 0.957 ± 0.097 | 0.789 ± 0.081 | 0.678 ± 0.071 |
| ClC(Cl)(Cl)Cl [tetrachloromethane] + CCCCC(CC)CN(CC(CC)CCCC)C(=O)C(C)C | 1.94 ± 0.2 | 1.6 ± 0.17 | 1.22 ± 0.13 | 0.935 ± 0.095 | 0.727 ± 0.076 | 0.581 ± 0.062 |
| c1ccccc1 [benzene] + CCCCC(CC)CN(CC(CC)CCCC)C(=O)C(C)C | 2.56 ± 0.27 | 2 ± 0.21 | 1.65 ± 0.17 | 1.37 ± 0.14 | 1.15 ± 0.12 | 0.954 ± 0.097 |
| C=CCCCCCCCC [1-decene] + CCCCC(CC)CN(CC(CC)CCCC)C(=O)C(C)C | 24.3 ± 2.6 | 19.4 ± 2 | 16.8 ± 1.8 | 14 ± 1.5 | 11.1 ± 1.2 | 9.87 ± 1 |
| C=CCCCCC [1-heptene] + CCCCC(CC)CN(CC(CC)CCCC)C(=O)C(C)C | 4.02 ± 0.42 | 2.89 ± 0.3 | 2.31 ± 0.24 | 1.8 ± 0.19 | 1.25 ± 0.13 | 0.974 ± 0.099 |
| CCOC(C)=O [ethyl acetate] + CCCCC(CC)CN(CC(CC)CCCC)C(=O)C(C)C | 1.43 ± 0.15 | 1.22 ± 0.12 | 0.985 ± 0.1 | 0.87 ± 0.089 | 0.7 ± 0.073 | 0.566 ± 0.061 |
| C=O [methanal] + CCCCC(CC)CN(CC(CC)CCCC)C(=O)C(C)C | 0.056 | 0.052 | 0.048 | 0.044 | 0.041 | 0.037 |
| CC(C)CC(C)(C)C [2,2,4-trimethylpentane] + CCCCC(CC)CN(CC(CC)CCCC)C(=O)C(C)C | 4.26 ± 0.45 | 3.33 ± 0.35 | 2.6 ± 0.27 | 2.09 ± 0.22 | 1.74 ± 0.18 | 1.29 ± 0.13 |
| CCc1ccccc1 [ethylbenzene] + CCCCC(CC)CN(CC(CC)CCCC)C(=O)C(C)C | 11.3 ± 1.2 | 8.75 ± 0.92 | 6.78 ± 0.71 | 4.96 ± 0.52 | 3.9 ± 0.41 | 2.88 ± 0.3 |
| CCCCc1ccccc1 [butylbenzene] + CCCCC(CC)CN(CC(CC)CCCC)C(=O)C(C)C | 24.4 ± 2.6 | 20.7 ± 2.2 | 17.5 ± 1.8 | 15 ± 1.6 | 12.5 ± 1.3 | 10.6 ± 1.1 |
| CCCCCCCC [octane] + CCCCC(CC)CN(CC(CC)CCCC)C(=O)C(C)C | 11.9 ± 1.3 | 8.35 ± 0.88 | 6.04 ± 0.64 | 4.54 ± 0.48 | 3.36 ± 0.35 | 2.63 ± 0.28 |
| CCCC(=O)CC [3-hexanone] + CCCCC(CC)CN(CC(CC)CCCC)C(=O)C(C)C | 8.64 ± 0.91 | 6.42 ± 0.68 | 4.88 ± 0.51 | 3.74 ± 0.39 | 2.86 ± 0.3 | 2.15 ± 0.23 |
| CC#N [acetonitrile] + CCCCC(CC)CN(CC(CC)CCCC)C(=O)C(C)C | 1.47 ± 0.15 | 1.21 ± 0.12 | 1.03 ± 0.1 | 0.861 ± 0.088 | 0.718 ± 0.075 | 0.568 ± 0.061 |
| CCCCCC [hexane] + CCCCC(CC)CN(CC(CC)CCCC)C(=O)C(C)C | 1.91 ± 0.2 | 1.53 ± 0.16 | 1.26 ± 0.13 | 1.02 ± 0.1 | 0.845 ± 0.087 | 0.717 ± 0.075 |
| CCCc1ccccc1 [propylbenzene] + CCCCC(CC)CN(CC(CC)CCCC)C(=O)C(C)C | 17.8 ± 1.9 | 14.7 ± 1.6 | 11.5 ± 1.2 | 9.18 ± 0.97 | 7.33 ± 0.77 | 5.72 ± 0.6 |
| CCCCCCCCCCC [undecane] + CCCCC(CC)CN(CC(CC)CCCC)C(=O)C(C)C | 39.2 ± 4.1 | 35.9 ± 3.8 | 31.5 ± 3.3 | 27.5 ± 2.9 | 25.5 ± 2.7 | 22.7 ± 2.4 |
| CCCCCCCCCC [decane] + CCCCC(CC)CN(CC(CC)CCCC)C(=O)C(C)C | 26.4 ± 2.8 | 22.7 ± 2.4 | 18.3 ± 1.9 | 15.2 ± 1.6 | 12.2 ± 1.3 | 9.89 ± 1 |
| CCCCCCCCC [nonane] + CCCCC(CC)CN(CC(CC)CCCC)C(=O)C(C)C | 18.5 ± 1.9 | 16 ± 1.7 | 13.7 ± 1.4 | 11.8 ± 1.2 | 9.8 ± 1 | 8.67 ± 0.91 |
| CCCCCCC [heptane] + CCCCC(CC)CN(CC(CC)CCCC)C(=O)C(C)C | 4.37 ± 0.46 | 3.49 ± 0.37 | 2.78 ± 0.29 | 2.32 ± 0.24 | 2.02 ± 0.21 | 1.71 ± 0.18 |
| Cc1ccc(C)cc1 [1,4-dimethylbenzene] + CCCCC(CC)CN(CC(CC)CCCC)C(=O)C(C)C | 11.6 ± 1.2 | 9.01 ± 0.95 | 6.9 ± 0.73 | 5.2 ± 0.55 | 3.75 ± 0.4 | 2.89 ± 0.3 |
| C1CCCCC1 [cyclohexane] + CCCCC(CC)CN(CC(CC)CCCC)C(=O)C(C)C | 2.77 ± 0.29 | 2.15 ± 0.23 | 1.74 ± 0.18 | 1.41 ± 0.15 | 1.18 ± 0.12 | 0.966 ± 0.098 |
| CCCCCC(C)=O [2-heptanone] + CCCCC(CC)CN(CC(CC)CCCC)C(=O)C(C)C | 13.8 ± 1.4 | 10.6 ± 1.1 | 8.16 ± 0.86 | 6.2 ± 0.65 | 5 ± 0.53 | 4.04 ± 0.42 |
| C=CCCCCCC [oct-1-ene] + CCCCC(CC)CN(CC(CC)CCCC)C(=O)C(C)C | 7.52 ± 0.79 | 6.09 ± 0.64 | 4.86 ± 0.51 | 3.76 ± 0.4 | 2.94 ± 0.31 | 2.21 ± 0.23 |
| Cc1cccc(C)c1 [1,3-dimethylbenzene] + CCCCC(CC)CN(CC(CC)CCCC)C(=O)C(C)C | 11.8 ± 1.2 | 9.28 ± 0.98 | 7.2 ± 0.76 | 5.33 ± 0.56 | 4.13 ± 0.43 | 3.14 ± 0.33 |
| CCCC(C)C [2-methylpentane] + CCCCC(CC)CN(CC(CC)CCCC)C(=O)C(C)C | 1.11 ± 0.11 | 0.938 ± 0.096 | 0.768 ± 0.079 | 0.639 ± 0.067 | 0.525 ± 0.057 | 0.428 ± 0.049 |
| CC(C)=O [acetone] + CCCCC(CC)CN(CC(CC)CCCC)C(=O)C(C)C | 0.901 ± 0.092 | 0.745 ± 0.077 | 0.596 ± 0.064 | 0.465 ± 0.052 | 0.375 ± 0.045 | 0.294 ± 0.039 |
